According to ChEMBL document CHEMBL1201862, “PubChem BioAssay data set” (2004):
The source made the active and inactive calls.

Tests used:
[1] = target: Dual specificity mitogen-activated protein kinase kinase 1 (Homo sapiens, UniProt Q02750); test: Navigating the Kinome. Panel member name: MAP2K1; format: functional
[2] = target: Dual specificity protein kinase CLK2 (Homo sapiens, UniProt P49760); format: functional
[3] = target: Casein kinase I isoform alpha (Homo sapiens, UniProt P48729); format: functional
[4] = target: Mitogen-activated protein kinase kinase kinase kinase 2 (Homo sapiens, UniProt Q12851); format: functional;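 further: measured as one member of a kinome-wide kinase panel, with MAP4K2 as the panel entry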
[5] = target: Dual specificity protein kinase CLK4 (Homo sapiens, UniProt Q9HAZ1); format: functional
[6] = target: Macrophage-stimulating protein receptor (Homo sapiens, UniProt Q04912); test: Navigating the Kinome. Panel member name: MST1R; format: functional
Vero = Vero cell cytotoxicity, cytotoxicity control for flavivirus capping enzyme inhibitors (AID 588742); format: functional; conditions: Chlorocebus sabaeus
[7] = C. albicans growth with fluconazole, confirmation, fluorescence, retest (AID 2467); format: functional, cell-based
Protein RecA = target: T1, Protein RecA (Mycobacterium tuberculosis, UniProt P9WHJ3); test: Fluorescence Cell-Free Homogeneous Dose Retest to Identify Inhibitors of RecA-Intein Splicing Activity. [Related pubchem assays (depositor defined):AID2097, AID2223, AID489010, AID492950]; format: functional
T1 sequence (P9WHJ3 whole entry): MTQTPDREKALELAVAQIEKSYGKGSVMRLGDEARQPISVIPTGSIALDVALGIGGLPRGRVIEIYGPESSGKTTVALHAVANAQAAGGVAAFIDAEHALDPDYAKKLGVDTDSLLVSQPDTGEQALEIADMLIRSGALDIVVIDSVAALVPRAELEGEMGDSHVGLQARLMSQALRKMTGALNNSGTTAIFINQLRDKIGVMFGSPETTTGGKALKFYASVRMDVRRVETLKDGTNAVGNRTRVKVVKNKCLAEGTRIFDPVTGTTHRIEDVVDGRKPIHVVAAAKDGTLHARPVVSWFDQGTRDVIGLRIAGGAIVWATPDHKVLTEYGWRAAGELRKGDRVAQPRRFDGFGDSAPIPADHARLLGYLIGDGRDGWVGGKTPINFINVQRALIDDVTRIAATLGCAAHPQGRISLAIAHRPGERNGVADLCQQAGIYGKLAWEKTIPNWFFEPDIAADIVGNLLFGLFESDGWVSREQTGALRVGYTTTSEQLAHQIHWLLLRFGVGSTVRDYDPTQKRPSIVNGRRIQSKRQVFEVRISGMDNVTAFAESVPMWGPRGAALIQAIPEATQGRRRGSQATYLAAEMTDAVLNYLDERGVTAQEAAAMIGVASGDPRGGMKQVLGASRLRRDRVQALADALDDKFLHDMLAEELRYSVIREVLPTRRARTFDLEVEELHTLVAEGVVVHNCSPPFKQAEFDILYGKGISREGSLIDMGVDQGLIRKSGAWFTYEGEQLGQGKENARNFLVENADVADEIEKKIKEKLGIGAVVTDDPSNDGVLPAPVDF

[8] = target: RAC-alpha serine/threonine-protein kinase (Homo sapiens, UniProt P31749); format: functional;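 further: AKT1 affinity measured as one member of a kinome-wide kinase profiling panel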
[9] = target: Serine/threonine-protein kinase MRCK alpha (Homo sapiens, UniProt Q5VT25); format: functional
[10] = target: MAP kinase-activated protein kinase 2 (Homo sapiens, UniProt P49137); format: functional;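 further: measured as one member of a kinome-wide kinase panel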
[11] = target: Non-receptor tyrosine-protein kinase TYK2 (Homo sapiens, UniProt P29597); format: functional
[12] = target: Serine/threonine-protein kinase pim-2 (Homo sapiens, UniProt Q9P1W9); format: functional;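 further: value comes from a broad kinase panel profiling study in which PIM2 was one of the panel members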
[13] = target: Serine/threonine-protein kinase PLK1 (Homo sapiens, UniProt P53350); format: functional;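 further: PLK1 measured as one member of a kinome-wide profiling panel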
[14] = target: Receptor tyrosine-protein kinase erbB-2 (Homo sapiens, UniProt P04626); test: Navigating the Kinome. Panel member name: ERBB2; format: functional
[15] = target: Inhibitor of nuclear factor kappa-B kinase subunit alpha (Homo sapiens, UniProt O15111); format: functional
[16] = target: Serine/threonine-protein kinase PAK 1 (Homo sapiens, UniProt Q13153); format: functional
[17] = target: Calcium/calmodulin-dependent protein kinase type 1 (Homo sapiens, UniProt Q14012); format: functional
[18] = target: Proto-oncogene tyrosine-protein kinase Src (Homo sapiens, UniProt P12931); format: functional;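 further: SRC entry within a kinome-wide kinase profiling panel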
[19] = target: T2, Zinc finger protein mex-5 (Caenorhabditis elegans, UniProt Q9XUB2); test: MEX-5/TCR-2 RNA interaction inhibitors, dose response, biochemical, C. elegans, fluorescence polarization (AID 1960)
T2 sequence (Q9XUB2 whole entry): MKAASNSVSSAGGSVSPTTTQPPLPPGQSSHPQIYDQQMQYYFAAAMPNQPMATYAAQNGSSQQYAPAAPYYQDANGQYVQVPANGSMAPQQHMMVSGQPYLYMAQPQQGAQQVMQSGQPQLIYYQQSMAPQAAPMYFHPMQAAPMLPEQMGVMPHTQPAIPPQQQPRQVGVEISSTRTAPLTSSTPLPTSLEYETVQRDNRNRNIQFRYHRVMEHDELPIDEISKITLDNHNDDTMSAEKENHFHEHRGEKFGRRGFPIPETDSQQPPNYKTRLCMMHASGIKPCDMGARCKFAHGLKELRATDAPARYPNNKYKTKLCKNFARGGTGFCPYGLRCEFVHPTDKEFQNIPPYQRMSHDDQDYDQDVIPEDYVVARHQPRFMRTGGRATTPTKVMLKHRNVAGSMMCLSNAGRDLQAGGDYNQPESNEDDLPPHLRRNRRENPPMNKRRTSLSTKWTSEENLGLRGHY

[20] = target: 1-phosphatidylinositol 4,5-bisphosphate phosphodiesterase gamma-1 (Homo sapiens, UniProt P19174); test: Counterscreen for inhibitors of phospholipase C isozymes (PLC-B3): Fluorescence-based biochemical high throughput dose response assay to identify inhibitors of phospholipase C isozymes (PLC-gamma1).

Chain of Mitogen-activated protein kinase kinase kinase kinase 2 (Q12851 whole entry): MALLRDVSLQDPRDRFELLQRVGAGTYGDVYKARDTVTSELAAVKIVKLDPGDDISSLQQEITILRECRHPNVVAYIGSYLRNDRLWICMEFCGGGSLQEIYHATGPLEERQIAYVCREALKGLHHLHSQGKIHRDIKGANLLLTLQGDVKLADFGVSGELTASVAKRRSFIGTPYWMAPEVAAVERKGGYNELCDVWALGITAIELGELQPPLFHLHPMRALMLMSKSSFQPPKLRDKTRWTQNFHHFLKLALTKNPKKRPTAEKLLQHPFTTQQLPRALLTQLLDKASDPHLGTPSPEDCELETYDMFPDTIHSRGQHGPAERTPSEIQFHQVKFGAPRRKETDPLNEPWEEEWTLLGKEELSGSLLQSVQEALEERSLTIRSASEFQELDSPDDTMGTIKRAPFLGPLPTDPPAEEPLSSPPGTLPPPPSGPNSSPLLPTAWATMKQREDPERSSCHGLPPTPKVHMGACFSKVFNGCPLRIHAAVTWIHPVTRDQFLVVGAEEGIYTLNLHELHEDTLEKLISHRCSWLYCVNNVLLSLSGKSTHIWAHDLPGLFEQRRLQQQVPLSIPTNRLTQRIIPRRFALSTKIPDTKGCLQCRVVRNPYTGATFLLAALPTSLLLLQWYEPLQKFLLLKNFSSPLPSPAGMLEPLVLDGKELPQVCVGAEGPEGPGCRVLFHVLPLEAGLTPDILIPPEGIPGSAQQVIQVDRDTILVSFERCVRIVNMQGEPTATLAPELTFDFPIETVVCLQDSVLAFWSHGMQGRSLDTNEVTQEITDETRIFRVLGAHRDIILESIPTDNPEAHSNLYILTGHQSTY
Chain of Serine/threonine-protein kinase MRCK alpha (Q5VT25 whole entry): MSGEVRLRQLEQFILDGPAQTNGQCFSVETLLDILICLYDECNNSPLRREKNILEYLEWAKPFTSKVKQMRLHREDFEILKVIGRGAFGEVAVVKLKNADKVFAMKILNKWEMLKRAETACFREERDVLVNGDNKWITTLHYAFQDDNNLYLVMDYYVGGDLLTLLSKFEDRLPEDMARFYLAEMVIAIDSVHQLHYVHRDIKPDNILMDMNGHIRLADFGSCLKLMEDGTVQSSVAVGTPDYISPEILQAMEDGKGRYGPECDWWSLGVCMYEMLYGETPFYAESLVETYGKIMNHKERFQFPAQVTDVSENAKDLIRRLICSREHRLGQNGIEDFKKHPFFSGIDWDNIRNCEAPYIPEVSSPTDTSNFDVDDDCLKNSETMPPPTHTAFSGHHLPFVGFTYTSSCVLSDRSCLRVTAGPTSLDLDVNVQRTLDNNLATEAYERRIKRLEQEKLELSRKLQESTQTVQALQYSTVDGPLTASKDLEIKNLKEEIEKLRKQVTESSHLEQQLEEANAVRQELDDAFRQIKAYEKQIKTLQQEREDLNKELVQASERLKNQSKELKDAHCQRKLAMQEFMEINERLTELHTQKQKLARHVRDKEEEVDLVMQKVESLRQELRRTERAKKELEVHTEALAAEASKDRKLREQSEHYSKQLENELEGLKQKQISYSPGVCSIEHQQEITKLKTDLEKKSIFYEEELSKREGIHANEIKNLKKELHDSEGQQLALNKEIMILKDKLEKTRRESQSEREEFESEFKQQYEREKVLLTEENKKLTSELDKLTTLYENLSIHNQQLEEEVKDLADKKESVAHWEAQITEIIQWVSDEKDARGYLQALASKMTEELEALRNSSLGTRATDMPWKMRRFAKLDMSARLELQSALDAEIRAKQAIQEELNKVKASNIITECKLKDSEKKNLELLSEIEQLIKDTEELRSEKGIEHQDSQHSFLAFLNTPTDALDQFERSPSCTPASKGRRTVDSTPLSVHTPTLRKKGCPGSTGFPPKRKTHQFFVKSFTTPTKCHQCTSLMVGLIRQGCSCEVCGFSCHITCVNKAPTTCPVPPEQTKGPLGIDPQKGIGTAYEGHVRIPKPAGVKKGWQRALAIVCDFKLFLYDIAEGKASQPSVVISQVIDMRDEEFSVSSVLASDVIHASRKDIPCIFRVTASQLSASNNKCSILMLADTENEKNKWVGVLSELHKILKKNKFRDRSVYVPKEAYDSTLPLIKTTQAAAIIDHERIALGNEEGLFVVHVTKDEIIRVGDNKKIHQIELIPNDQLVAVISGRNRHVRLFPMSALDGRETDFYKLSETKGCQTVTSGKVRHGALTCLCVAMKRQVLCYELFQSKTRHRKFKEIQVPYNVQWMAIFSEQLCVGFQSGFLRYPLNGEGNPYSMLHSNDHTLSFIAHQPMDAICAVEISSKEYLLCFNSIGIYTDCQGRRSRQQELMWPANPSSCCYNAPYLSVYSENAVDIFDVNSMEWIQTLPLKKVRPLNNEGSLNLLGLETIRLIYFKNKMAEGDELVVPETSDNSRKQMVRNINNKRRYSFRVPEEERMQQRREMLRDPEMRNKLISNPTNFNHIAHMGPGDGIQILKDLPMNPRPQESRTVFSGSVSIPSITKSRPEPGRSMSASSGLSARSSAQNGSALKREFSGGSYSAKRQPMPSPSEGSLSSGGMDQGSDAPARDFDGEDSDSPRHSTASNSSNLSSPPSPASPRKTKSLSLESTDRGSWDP
Chain of MAP kinase-activated protein kinase 2 (P49137 whole entry): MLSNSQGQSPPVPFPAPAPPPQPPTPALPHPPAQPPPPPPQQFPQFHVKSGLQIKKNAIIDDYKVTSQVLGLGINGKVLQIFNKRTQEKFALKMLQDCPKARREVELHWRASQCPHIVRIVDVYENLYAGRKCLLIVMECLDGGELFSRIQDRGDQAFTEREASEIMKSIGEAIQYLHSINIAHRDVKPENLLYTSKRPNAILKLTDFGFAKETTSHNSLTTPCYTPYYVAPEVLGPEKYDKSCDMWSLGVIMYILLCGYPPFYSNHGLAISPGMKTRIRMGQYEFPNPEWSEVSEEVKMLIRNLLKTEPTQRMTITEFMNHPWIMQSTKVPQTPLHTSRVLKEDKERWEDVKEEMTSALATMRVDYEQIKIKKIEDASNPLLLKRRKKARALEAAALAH
Chain of RAC-alpha serine/threonine-protein kinase (P31749 whole entry): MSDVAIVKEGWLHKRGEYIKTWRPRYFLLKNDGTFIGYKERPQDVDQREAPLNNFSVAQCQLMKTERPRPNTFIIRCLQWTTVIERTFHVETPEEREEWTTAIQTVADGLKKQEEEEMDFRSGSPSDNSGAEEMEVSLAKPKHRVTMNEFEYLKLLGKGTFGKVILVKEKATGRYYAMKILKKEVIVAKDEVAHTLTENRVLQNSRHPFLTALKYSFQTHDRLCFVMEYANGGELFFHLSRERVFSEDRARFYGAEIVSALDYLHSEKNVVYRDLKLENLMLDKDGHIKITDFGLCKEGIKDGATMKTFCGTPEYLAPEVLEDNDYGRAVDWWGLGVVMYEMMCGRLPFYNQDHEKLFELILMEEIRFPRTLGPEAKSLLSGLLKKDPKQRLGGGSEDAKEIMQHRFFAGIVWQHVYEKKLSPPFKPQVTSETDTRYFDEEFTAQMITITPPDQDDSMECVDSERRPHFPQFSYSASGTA
Chain of Dual specificity protein kinase CLK4 (Q9HAZ1 whole entry): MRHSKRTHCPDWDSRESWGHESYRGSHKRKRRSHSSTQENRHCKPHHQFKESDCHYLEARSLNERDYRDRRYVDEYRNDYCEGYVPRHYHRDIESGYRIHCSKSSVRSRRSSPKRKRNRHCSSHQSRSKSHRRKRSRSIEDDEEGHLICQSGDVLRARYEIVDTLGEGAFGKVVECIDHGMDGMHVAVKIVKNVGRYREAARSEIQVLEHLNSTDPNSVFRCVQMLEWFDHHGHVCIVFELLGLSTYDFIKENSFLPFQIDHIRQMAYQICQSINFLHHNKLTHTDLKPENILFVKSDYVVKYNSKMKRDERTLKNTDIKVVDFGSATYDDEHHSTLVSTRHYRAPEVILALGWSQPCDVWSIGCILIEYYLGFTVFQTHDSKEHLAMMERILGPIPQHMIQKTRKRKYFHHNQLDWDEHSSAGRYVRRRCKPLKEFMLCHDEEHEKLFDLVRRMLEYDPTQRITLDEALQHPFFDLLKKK
Chain of Non-receptor tyrosine-protein kinase TYK2 (P29597 whole entry): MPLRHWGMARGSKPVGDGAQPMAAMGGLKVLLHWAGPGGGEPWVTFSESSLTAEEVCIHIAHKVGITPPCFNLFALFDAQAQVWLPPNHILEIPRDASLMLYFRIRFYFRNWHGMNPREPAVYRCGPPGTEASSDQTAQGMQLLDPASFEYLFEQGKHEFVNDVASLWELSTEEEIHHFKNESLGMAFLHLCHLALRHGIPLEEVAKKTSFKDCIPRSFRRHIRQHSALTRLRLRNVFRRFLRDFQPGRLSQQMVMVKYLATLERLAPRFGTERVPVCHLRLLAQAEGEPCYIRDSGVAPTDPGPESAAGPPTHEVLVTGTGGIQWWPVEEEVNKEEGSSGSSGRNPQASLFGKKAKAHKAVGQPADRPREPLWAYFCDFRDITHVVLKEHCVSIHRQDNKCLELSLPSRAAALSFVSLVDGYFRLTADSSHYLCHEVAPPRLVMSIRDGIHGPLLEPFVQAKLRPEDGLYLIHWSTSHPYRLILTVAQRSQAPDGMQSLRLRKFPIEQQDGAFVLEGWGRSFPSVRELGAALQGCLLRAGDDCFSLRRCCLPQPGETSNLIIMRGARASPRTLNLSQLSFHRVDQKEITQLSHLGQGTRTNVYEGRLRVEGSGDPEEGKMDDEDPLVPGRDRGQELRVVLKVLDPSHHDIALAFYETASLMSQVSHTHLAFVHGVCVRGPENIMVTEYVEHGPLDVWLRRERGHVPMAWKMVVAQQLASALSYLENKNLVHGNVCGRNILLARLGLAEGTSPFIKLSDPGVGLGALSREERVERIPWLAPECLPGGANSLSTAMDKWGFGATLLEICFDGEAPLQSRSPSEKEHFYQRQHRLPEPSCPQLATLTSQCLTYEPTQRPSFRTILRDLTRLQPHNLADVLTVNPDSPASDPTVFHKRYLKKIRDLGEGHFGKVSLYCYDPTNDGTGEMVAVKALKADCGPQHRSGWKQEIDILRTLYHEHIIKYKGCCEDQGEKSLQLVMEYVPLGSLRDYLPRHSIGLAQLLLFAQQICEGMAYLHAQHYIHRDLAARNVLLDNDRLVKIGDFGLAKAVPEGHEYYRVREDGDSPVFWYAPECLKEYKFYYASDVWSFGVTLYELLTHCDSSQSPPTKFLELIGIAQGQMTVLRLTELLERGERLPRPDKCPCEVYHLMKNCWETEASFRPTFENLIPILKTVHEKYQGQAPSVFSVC

Cc1cc(=O)[nH]nc1-c1ccc(NC(=O)Nc2cc(C(F)(F)F)ccc2F)c(Cl)c1
Ki [1]: > 3.16 µM (inactive) | Ki [2]: > 3.98 µM (inactive) | Ki [3]: > 3.98 µM (inactive) | Ki [4]: > 2.51 µM (inactive) | Ki [5]: > 2.51 µM (inactive) | Ki [6]: > 3.98 µM (inactive)

O=C1C=C(NCc2ccccc2)c2ccccc2C1=O
CC50 (Vero): 19.1 µM (active) | EC50 [7]: 1.84 µM (active) | EC50 (Protein RecA): 0.774 µM (active)

CCOC(=O)c1cn(-c2ccc(O)cc2C)c2cc(-c3ccncc3)ccc2c1=O
Ki [8]: > 7.94 µM (inactive) | Ki [9]: 0.251 µM (active) | Ki [10]: > 7.94 µM (inactive) | Ki [11]: > 2 µM (inactive) | Ki [12]: > 1.58 µM (inactive) | Ki [13]: > 7.94 µM (inactive) | Ki [14]: > 1.58 µM (inactive) | Ki [15]: > 3.98 µM (inactive) | Ki [16]: > 10 µM (inactive) | Ki [17]: > 7.94 µM (inactive) | Ki [18]: > 5.01 µM (inactive)

O=C(O)c1[nH]c2ccccc2c1C(c1cc(Cl)cc([N+](=O)[O-])c1O)c1c(C(=O)O)[nH]c2ccccc12
EC50 [19]: 9.16 µM (active) | IC50 [20]: 26.6 µM (inactive)
